Legend:
U937 cells = assay: Cell cycle kinetics, proliferating (S+G2M) fraction by flow cytometry; type: cell-based, human
Procedure: Cell kinetic and DNA fragmentation studies. The cell cycle kinetics was determined by staining cells with acridine orange for cellular DNA and RNA content followed by flow cytometeric analysis as described. Samples were measured in a FACScan flow cytometer (Becton Dickinson, San Jose, Calif.) using the 488-nm line of a […] argon laser and filter settings for green (530 nm) (DNA) and red (585 nm) (RNA) fluorescence. Ten thousand events were stored in list mode for analysis. The percentage of cells in the “sub G1 peak” defined the proportion of apoptotic cells in the tested populations. […] Cell-cycle kinetics was analyzed using ModFit software (Verity Software House, Inc., Topsham, Me.).
CDDO. The effect of CDDO on the survival of HL-60 and U937 leukemia cell lines is depicted in FIG. 1. A time- and dose-dependent decrease of HL-60 cells: at 48 hours, 10^−8 M, at 72 and 96 hours, 10^−9 M of CDDO reduced cell numbers by 50%. Viability of U937 cells was inhibited at 107 to 1018 at 48 hours. DNA fragmentation was measured to confirm that the cell death induced by CDDO was due to apoptosis on a sub G1 cell population by DNA/RNA flow cytometry (FIG. 2). The percentage of proliferating cells were analyzed by FCM.

D9 cells, vector control = assay: Annexin V / cell number in D9 vector control cells; type: cell-based
Procedure: (§1) Annexin V staining. Cells were washed in phosphate-buffered saline (PBS) and resuspended in 100 μl of binding buffer containing Annexin V (Roche Diagnostic Corporation, Indianapolis, Ind.). Cells were analyzed by flow cytometry after the addition of propidium iodide (PI). Annexin V binds to those cells that express phosphatidylserine on the outer layer of the cell membrane, and PI stains the cellular DNA of those cells with a compromised cell membrane. This allows for live cells (unstained with either fluorochrome) to be discriminated from apoptotic cells (stained only with annexin V) and necrotic cells (stained with both annexin and PI).
(§2) To characterize the correlation between PPARγ and caspase activation, caspase-3 levels in D9 cells transfected with wt-PPARγ were analyzed. Six different single cell-derived clones were treated with 3 μM CDDO or vehicle controls for 5 hrs. Caspase-3 cleavage was analyzed by Western blot. A decrease in pro-caspase-3 with appearance of the cleaved product was readily observed in all clones. The degree of cleavage was higher in PPARγ-transfected than in vector control cells that express endogenous PPARγ. […] These changes correlated with plasma membrane changes: vector control=47.0% annexin V-positive cells; wt-PPARγ-transfected cells=73.3±1.1% annexin V (+), n=6. […] PPARγ-transfected cells were also more sensitive to PPARγ-ligand 15d-PGJ2 (41.00% vs 16.0% annexin (+) cells at 3 μM).
To characterize the correlation between PPARγ and caspase activation, caspase-3 levels in D9 cells transfected with wt-PPARγ were analyzed. Six different single cell-derived clones were treated with 3 μM CDDO or vehicle controls for 5 hrs. Caspase-3 cleavage was analyzed by Western blot. A decrease in pro-caspase-3 with appearance of the cleaved product was readily observed in all clones. The degree of cleavage was higher in PPARγ-transfected than in vector control cells that express endogenous PPARγ. […] These changes correlated with plasma membrane changes: vector control=47.0% annexin V-positive cells; wt-PPARγ-transfected cells=73.3±1.1% annexin V (+), n=6. […]

[1] = test system: wt-PPARγ-transfected D9 cells; assay: Annexin V / cell number in wt-PPARγ-transfected D9 cells; type: cell-based
Procedure: as §1, §2
as §2, with “(41.0%” for “(41.00%”
The sensitivity of leukemic cells that overexpress PPARγ to CDDO-induced killing was tested. Vector control (pcDNA) or wt-PPARγ-transfected D9 cells (2 different clones) were treated 0.2 μM of CDDO for 48 hrs. Cell viability was assessed by cell count after Trypan blue exclusion, and apoptosis determined by PS/annexin V/Propidium Iodide (PI) flow cytometry. Leukemic cells transfected with PPARγ expressed 2.8-3.7-fold higher amounts of protein compared with vector controls. […] Importantly, CDDO increased PPARγ expression in both, vector control and transfected cells. […]

HL-60 cells = assay: CDDO-Me plus LG-100268 in HL-60 cells (Table 6); type: cell-based, human; set-up: unit not given here; conditions: 24 hrs; CDDO-Me 0.1 μM, no ligand
Procedure: Finally, the inventors examined if CDDO-Me combined with ATRA would enhance differentiation. HL-60 cells were cultured with of 0.1 μM of CDDO-Me for 72 hrs, alone or in combination with 1 μM ATRA. […] At 48 hrs, 67.4% in CDDO-Me-treated cells and 63.5% in ATRA-treated cells were CD11b+ (compared with 40% in DMSO controls), while 85% of cells were positive when both compounds were given simultaneously. These studies were repeated 3 times and yielded essentially identical results. Next, combined treatment with CDDO-Me and RXR-specific ligand were tested for potentiation of anti-leukemic effects. RXR-specific ligand LG-100268 (Ligand Pharmaceuticals) used at 10, 100 nm and 1 μM enhanced killing of HL-60 cells in a dose-dependent manner (Table 6).

## CC1(C)CCC2(C(=O)O)CCC3(C)C(C(=O)C=C4C5(C)C=C(C#N)C(=O)C(C)(C)C5CCC43C)C2C1 (centres unmarked) [CDDO, 2-cyano-3,12-dioxoolen-1,9-dien-28-oic acid]
U937 cells; 10^−6 M
  proliferating (S+G2M) fraction: 5.6%
U937 cells; 10^−7 M (DMSO-controls 23.3%)
  proliferating (S+G2M) fraction: 14.9%
D9 cells, vector control; 3 μM (CDDO: 5 hrs)
  annexin V-positive cells: 47.0%
D9 cells, vector control; 3 μM CDDO
  cell number: did not change
[1]; 3 μM (CDDO: 5 hrs, n=6)
  annexin V (+) cells: 73.3±1.1%
[1]; 3 μM CDDO
  cell number decreased by: 48.8±12.4%
[1]; all six single cell-derived subclones, 0.2 μM CDDO, 48 hrs
  higher sensitivity compared to vector-control cells: > 50%

## COC(=O)[C@]12CCC(C)(C)C[C@H]1[C@H]1C(=O)C=C3[C@@]4(C)C=C(C#N)C(=O)C(C)(C)[C@@H]4CC[C@@]3(C)[C@]1(C)CC2 [CDDO-Me]
HL-60 cells
  Table 6 value: CDDO-Me-induced monocytic differentiation in HL-60 cells: 22.4
